Measured values from ChEMBL document CHEMBL1212697, “High-content single-cell drug screening with phosphospecific flow cytometry” (Nat Chem Biol, 2008).
Active and inactive are the calls of the source. The calls are words filed in the database; no cut-off is given here.

Key:
MAP kinase p38 [1] = molecular target: T1, MAP kinase p38 (Homo sapiens, UniProt O15264+Q15759+Q16539+P53778); assay: Inhibition of anisomycin-induced p38 phosphorylation in human U937 cells by Phospho-Flow cytometry; assay type: cell-based; conditions: u-937
[2] = molecular target: T2, Janus Kinase (JAK) (Homo sapiens) (UniProt P52333+P23458+O60674+P29597); assay: Inhibition of JAK-mediated GM-CSF-induced Stat5 phosphorylation in human U937 cells by Phospho-Flow cytometry at 20 uM; assay type: cell-based; conditions: U-937
[3] = molecular target: T2, Janus Kinase (JAK) (Homo sapiens); assay: Inhibition of JAK-mediated interferon-gamma-induced Stat1 phosphorylation in human U937 cells by Phospho-Flow cytometry at 20 uM; assay type: cell-based; conditions: U-937
MAP kinase p38 [4] = molecular target: T1, MAP kinase p38; assay: Inhibition of anisomycin-induced p38 phosphorylation in human U937 cells by Phospho-Flow cytometry at 20 uM; assay type: cell-based; conditions: U-937
[5] = Inhibition of JAK-mediated IL4-induced Stat5 phosphorylation in BALB/c mouse CD11b-int macrophages by Phospho-Flow cytometry
Mus musculus [6] = organism: Mus musculus; assay: Inhibition of JAK-mediated IL4-induced Stat6 phosphorylation in BALB/c mouse CD11b-hi neutrophils by Phospho-Flow cytometry
Mus musculus [7] = organism: Mus musculus; assay: Inhibition of JAK-mediated IL4-induced Stat6 phosphorylation in BALB/c mouse CD8+ Tcells by Phospho-Flow cytometry
[8] = Inhibition of JAK-mediated IL6-induced Stat1 phosphorylation in BALB/c mouse B cells by Phospho-Flow cytometry; assay type: cell-based
[9] = Inhibition of JAK-mediated IL10-induced Stat3 phosphorylation in BALB/c mouse B cells by Phospho-Flow cytometry; assay type: cell-based
[10] = Inhibition of JAK-mediated interferon-gamma-induced Stat1 phosphorylation in BALB/c mouse B cells by Phospho-Flow cytometry; assay type: cell-based
[11] = Inhibition of JAK-mediated IL6-induced Stat3 phosphorylation in BALB/c mouse B cells by Phospho-Flow cytometry; assay type: cell-based
[12] = Inhibition of JAK-mediated IL15-induced Stat5 phosphorylation in BALB/c mouse B cells by Phospho-Flow cytometry; assay type: cell-based
[13] = Inhibition of JAK-mediated IL7-induced Stat5 phosphorylation in BALB/c mouse B cells by Phospho-Flow cytometry; assay type: cell-based
[14] = Inhibition of JAK-mediated IL4-induced Stat6 phosphorylation in BALB/c mouse B cells by Phospho-Flow cytometry; assay type: cell-based
[15] = Inhibition of JAK-mediated IL4-induced Stat5 phosphorylation in BALB/c mouse B cells by Phospho-Flow cytometry; assay type: cell-based
[16] = Inhibition of JAK-mediated IL6-induced Stat1 phosphorylation in BALB/c mouse CD4+ T cells by Phospho-Flow cytometry; assay type: cell-based; conditions: T-cell
[17] = Inhibition of JAK-mediated IL10-induced Stat3 phosphorylation in BALB/c mouse CD4+ T cells by Phospho-Flow cytometry; assay type: cell-based; conditions: T-cell
[18] = Inhibition of JAK-mediated interferon-gamma-induced Stat1 phosphorylation in BALB/c mouse CD4+ T cells by Phospho-Flow cytometry; assay type: cell-based; conditions: T-cell
[19] = Inhibition of JAK-mediated IL6-induced Stat3 phosphorylation in BALB/c mouse CD4+ T cells by Phospho-Flow cytometry; assay type: cell-based; conditions: T-cell
[20] = Inhibition of JAK-mediated IL15-induced Stat5 phosphorylation in BALB/c mouse CD4+ T cells by Phospho-Flow cytometry; assay type: cell-based; conditions: T-cell
[21] = Inhibition of JAK-mediated IL7-induced Stat5 phosphorylation in BALB/c mouse CD4+ T cells by Phospho-Flow cytometry; assay type: cell-based; conditions: T-cell
[22] = Inhibition of JAK-mediated IL4-induced Stat6 phosphorylation in BALB/c mouse CD4+ T cells by Phospho-Flow cytometry; assay type: cell-based; conditions: T-cell
[23] = Inhibition of JAK-mediated IL4-induced Stat5 phosphorylation in BALB/c mouse CD4+ T cells by Phospho-Flow cytometry; assay type: cell-based; conditions: T-cell
[24] = Inhibition of JAK-mediated IL6-induced Stat1 phosphorylation in BALB/c mouse CD8+ T cells by Phospho-Flow cytometry; assay type: cell-based; conditions: T-cell
[25] = Inhibition of JAK-mediated IL10-induced Stat3 phosphorylation in BALB/c mouse CD8+ T cells by Phospho-Flow cytometry; assay type: cell-based; conditions: T-cell
[26] = Inhibition of JAK-mediated IL6-induced Stat3 phosphorylation in BALB/c mouse CD8+ T cells by Phospho-Flow cytometry; assay type: cell-based; conditions: T-cell
[27] = Inhibition of JAK-mediated IL15-induced Stat5 phosphorylation in BALB/c mouse CD8+ T cells by Phospho-Flow cytometry; assay type: cell-based; conditions: T-cell
[28] = Inhibition of JAK-mediated IL7-induced Stat5 phosphorylation in BALB/c mouse CD8+ T cells by Phospho-Flow cytometry; assay type: cell-based; conditions: T-cell
[29] = Inhibition of JAK-mediated IL4-induced Stat6 phosphorylation in BALB/c mouse CD8+ T cells by Phospho-Flow cytometry; assay type: cell-based; conditions: T-cell
[30] = Inhibition of JAK-mediated IL4-induced Stat5 phosphorylation in BALB/c mouse CD8+ T cells by Phospho-Flow cytometry; assay type: cell-based; conditions: T-cell
[31] = Inhibition of JAK-mediated IL6-induced Stat1 phosphorylation in BALB/c mouse CD11b-hi neutrophils by Phospho-Flow cytometry
[32] = Inhibition of JAK-mediated IL10-induced Stat3 phosphorylation in BALB/c mouse CD11b-hi neutrophils by Phospho-Flow cytometry
[33] = Inhibition of JAK-mediated interferon-gamma-induced Stat1 phosphorylation in BALB/c mouse CD11b-hi neutrophils by Phospho-Flow cytometry
[34] = Inhibition of JAK-mediated IL6-induced Stat3 phosphorylation in BALB/c mouse CD11b-hi neutrophils by Phospho-Flow cytometry
[35] = Inhibition of JAK-mediated IL15-induced Stat5 phosphorylation in BALB/c mouse CD11b-hi neutrophils by Phospho-Flow cytometry
[36] = Inhibition of JAK-mediated IL7-induced Stat5 phosphorylation in BALB/c mouse CD11b-hi neutrophils by Phospho-Flow cytometry
[37] = Inhibition of JAK-mediated IL4-induced Stat5 phosphorylation in BALB/c mouse CD11b-hi neutrophils by Phospho-Flow cytometry
[38] = Inhibition of JAK-mediated IL6-induced Stat1 phosphorylation in BALB/c mouse CD11b-int macrophages by Phospho-Flow cytometry
[39] = Inhibition of JAK-mediated IL10-induced Stat3 phosphorylation in BALB/c mouse CD11b-int macrophages by Phospho-Flow cytometry
[40] = Inhibition of JAK-mediated interferon-gamma-induced Stat1 phosphorylation in BALB/c mouse CD11b-int macrophages by Phospho-Flow cytometry
[41] = Inhibition of JAK-mediated IL6-induced Stat3 phosphorylation in BALB/c mouse CD11b-int macrophages by Phospho-Flow cytometry
[42] = Inhibition of JAK-mediated IL15-induced Stat5 phosphorylation in BALB/c mouse CD11b-int macrophages by Phospho-Flow cytometry
[43] = Inhibition of JAK-mediated IL7-induced Stat5 phosphorylation in BALB/c mouse CD11b-int macrophages by Phospho-Flow cytometry
[44] = Inhibition of JAK-mediated IL4-induced Stat6 phosphorylation in BALB/c mouse CD11b-int macrophages by Phospho-Flow cytometry
B [45] = assay: Inhibition of JAK-mediated IL10-induced Stat3 phosphorylation in BALB/c mouse B cells at 1 uM by Western blotting analysis; assay type: cell-based
B [46] = assay: Inhibition of JAK-mediated IL4-induced Stat5 phosphorylation in BALB/c mouse B cells at 1 uM by Western blotting analysis; assay type: cell-based
B [47] = assay: Inhibition of JAK-mediated IL4-induced Stat6 phosphorylation in BALB/c mouse B cells at 10 uM by Western blotting analysis; assay type: cell-based

What does the source list for `COC1=C[C@]23CCCN2CCc2cc4c(cc2[C@@H]3[C@@H]1O)OCO4` [CEPHALOTAXINE]?
IC50 (MAP kinase p38 [1]): 0.2 µM; inhibition [2]: 25%; inhibition [3]: > 65%; inhibition (MAP kinase p38 [4]): 25%

With `C=C1C(=O)O[C@H]2C[C@@H]1[C@@H](OC(C)=O)C/C(C)=C/CC/C(C)=C\CC[C@@]2(C)O` [CRASSIN] as the compound, how does the IC50 [5] read?
Its IC50 is under 20 µM.

What about the inhibition [2] of the same compound?
Its inhibition is “Active”.

What about the inhibition [3] of the same compound?
The inhibition was 25%.

And the inhibition (MAP kinase p38 [4])?
The inhibition was 25%.

What about the inhibition (Mus musculus [6]) of the same compound?
Its inhibition is “Dose-dependent effect”.

And the inhibition (Mus musculus [7])?
Its inhibition is “Dose-dependent effect”.

What about the IC50 [8] of the same compound?
The IC50 was under 20 µM.

And the IC50 [9]?
The IC50 was 1 µM.

What about the IC50 [10] of the same compound?
Its IC50 is under 20 µM.

And the IC50 [11]?
Its IC50 is under 20 µM.

And the IC50 [12]?
Its IC50 is under 20 µM.

And the IC50 [13]?
Its IC50 is under 20 µM.

And the IC50 [14]?
Its IC50 is 16 µM.

And the IC50 [15]?
Its IC50 is 1 µM.

What about the IC50 [16] of the same compound?
The IC50 was under 20 µM.

What about the IC50 [17] of the same compound?
The IC50 was under 20 µM.

What about the IC50 [18] of the same compound?
The IC50 was under 20 µM.

What about the IC50 [19] of the same compound?
Its IC50 is under 20 µM.

And the IC50 [20]?
The IC50 was under 20 µM.

And the IC50 [21]?
Its IC50 is under 20 µM.

And the IC50 [22]?
The IC50 was under 20 µM.

And the IC50 [23]?
Its IC50 is under 20 µM.

What about the IC50 [24] of the same compound?
The IC50 was under 20 µM.

What about the IC50 [25] of the same compound?
Its IC50 is under 20 µM.

And the IC50 [26]?
Its IC50 is under 20 µM.

What about the IC50 [27] of the same compound?
Its IC50 is under 20 µM.

What about the IC50 [28] of the same compound?
The IC50 was under 20 µM.

What about the IC50 [29] of the same compound?
Its IC50 is under 20 µM.

And the IC50 [30]?
The IC50 was under 20 µM.

What about the IC50 [31] of the same compound?
The IC50 was under 20 µM.

What about the IC50 [32] of the same compound?
Its IC50 is under 20 µM.

And the IC50 [33]?
The IC50 was under 20 µM.

And the IC50 [34]?
The IC50 was under 20 µM.

And the IC50 [35]?
The IC50 was under 20 µM.

And the IC50 [36]?
The IC50 was under 20 µM.

What about the IC50 [37] of the same compound?
The IC50 was under 20 µM.

What about the IC50 [38] of the same compound?
The IC50 was under 20 µM.

And the IC50 [39]?
The IC50 was under 20 µM.

And the IC50 [40]?
Its IC50 is under 20 µM.

And the IC50 [41]?
Its IC50 is under 20 µM.

What about the IC50 [42] of the same compound?
The IC50 was under 20 µM.

And the IC50 [43]?
The IC50 was under 20 µM.

And the IC50 [44]?
Its IC50 is under 20 µM.

And the inhibition (B [45])?
The inhibition was “Active”.

What about the inhibition (B [46]) of the same compound?
Its inhibition is “Active”.

What about the inhibition (B [47]) of the same compound?
Its inhibition is “Active”.
